The test concerns ACC2 CT. In words: NADH reverse-coupled assay. Type of test: biochemical, human. Particulars: reverse reaction.

The structures appear in SMILES notation. Read-outs that look alike come from different tables or passages of the source.

The values that follow come from US20090155815A1, “CRYSTAL STRUCTURE OF THE CARBOXYL TRANSFERASE DOMAIN OF HUMAN ACETYL-COA CARBOXYLASE 2 PROTEIN (ACC2 CT) AND USES THEREOF” (priority 2007, published 2009).

Method: In the reverse reaction, ACC2 CT catalyzes the production of Acetyl CoA using malonyl CoA and biocytin as the substrates.
The activity of ACC2 CT in the reverse reaction is measured indirectly by coupling the reaction with two other enzymes, malate dehydrogenase and citrate synthase. Malate dehydrogenase converts NAD+ and malate to produce NADH and oxaloacetate. The acetyl CoA produced by the ACC2 CT reverse reaction and the oxaloacetate produced by the malate dehydrogenase reaction are consumed as the substrates for the citrate synthase reaction. The final products of the citrate synthase reaction are citric acid and CoA, but it is the production of NADH that acts as the readout for the activity of ACC2 CT. The conversion of NAD+ to NADH is detected by reading absorbance at 340 nm.
The final assay conditions are 50 nM ACC2 CT, 1 mM Malonyl CoA, 20 mM Biocytin, 8 mM Malic Acid, 3 mM NAD+, 100 units/mL Malate Dehydrogenase, 20 units/mL Citrate Synthase, 50 mM Hepes pH 7.0, 100 mM NaCl, 0.01% Tween 20, and compounds are used with a 200-fold dilution of 100% DMSO stock for a final concentration of 0.5% DMSO.
Absorbance data is collected at 340 nm and 37° C. for at least 30 minutes. Linear kinetic rates (mOD/min) are used to calculate % inhibition values of the compounds tested.

By Km is commonly meant the concentration of substrate that gives half-maximal velocity. In the case of `N[C@@H](CCCCNC(=O)CCCC[C@@H]1SC[C@@H]2NC(=O)N[C@@H]21)C(=O)O` [Biocytin], under “could not be precisely determined, estimated, read-out: kM of Biocytin”, the Km was roughly 20000 µM. Take `CC(C)(COP(=O)(O)OP(=O)(O)OC[C@H]1O[C@@H](n2cnc3c(N)ncnc32)[C@H](O)[C@@H]1OP(=O)(O)O)[C@@H](O)C(=O)NCCC(=O)NCCSC(=O)CC(=O)O` [Malonyl CoA]: the Km turned out to be 160 µM (against 50 nM ACC2/20 mM Biocytin, 37° C., absorbance 340 nm, read-out: kM of Malonyl CoA) and 130 µM (against ACC2/No Biocytin, 37° C., absorbance 340 nm, read-out: kM of Malonyl CoA).
